We go through seven molecules from ChEMBL document CHEMBL5465560, “Selectivity Literature for EUbOPEN Chemogenomic Library” (2024).

SMILES strings stand for the structures.

Test [1] has as its target T1, Mitogen-activated protein kinase kinase kinase 15 (Homo sapiens) (UniProt Q6ZN16).
T1 sequence (whole entry): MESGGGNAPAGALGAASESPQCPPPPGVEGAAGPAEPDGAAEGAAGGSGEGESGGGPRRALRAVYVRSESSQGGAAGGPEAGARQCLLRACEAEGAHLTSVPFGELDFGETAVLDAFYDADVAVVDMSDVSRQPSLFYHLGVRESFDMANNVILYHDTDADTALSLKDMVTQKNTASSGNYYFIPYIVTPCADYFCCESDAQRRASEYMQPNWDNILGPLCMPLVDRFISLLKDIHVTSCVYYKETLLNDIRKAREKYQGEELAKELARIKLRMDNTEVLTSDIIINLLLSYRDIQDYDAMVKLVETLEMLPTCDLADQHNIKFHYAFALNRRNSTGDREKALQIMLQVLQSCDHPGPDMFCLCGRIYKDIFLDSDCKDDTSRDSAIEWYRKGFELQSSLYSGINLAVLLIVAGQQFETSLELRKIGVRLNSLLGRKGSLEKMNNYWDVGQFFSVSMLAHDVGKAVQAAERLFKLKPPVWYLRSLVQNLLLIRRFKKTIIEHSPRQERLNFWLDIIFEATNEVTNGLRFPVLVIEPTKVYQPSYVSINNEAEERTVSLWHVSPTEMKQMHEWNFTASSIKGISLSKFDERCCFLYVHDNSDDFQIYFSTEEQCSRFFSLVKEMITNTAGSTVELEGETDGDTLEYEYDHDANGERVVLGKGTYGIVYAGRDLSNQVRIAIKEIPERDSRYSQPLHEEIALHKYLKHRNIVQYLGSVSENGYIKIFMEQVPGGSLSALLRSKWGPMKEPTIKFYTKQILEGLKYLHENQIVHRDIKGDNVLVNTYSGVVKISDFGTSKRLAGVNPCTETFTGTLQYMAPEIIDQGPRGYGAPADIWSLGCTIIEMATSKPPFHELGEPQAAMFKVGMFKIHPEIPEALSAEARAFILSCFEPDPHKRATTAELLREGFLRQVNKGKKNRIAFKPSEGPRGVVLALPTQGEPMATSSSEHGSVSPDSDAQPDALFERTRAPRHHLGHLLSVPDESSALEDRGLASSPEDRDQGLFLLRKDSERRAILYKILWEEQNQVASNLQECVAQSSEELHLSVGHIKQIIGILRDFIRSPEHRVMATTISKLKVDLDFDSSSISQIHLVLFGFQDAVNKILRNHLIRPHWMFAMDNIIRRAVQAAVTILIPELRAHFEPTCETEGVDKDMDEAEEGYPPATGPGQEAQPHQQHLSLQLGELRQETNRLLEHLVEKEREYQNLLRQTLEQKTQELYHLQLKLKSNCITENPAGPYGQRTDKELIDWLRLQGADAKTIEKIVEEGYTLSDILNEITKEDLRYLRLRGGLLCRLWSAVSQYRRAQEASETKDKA
The test is described as follows: Selectivity interaction (KinomeScan (DiscoverX)) EUB0000666a MAP3K15. To be noted: at 10 µM.

Test [2] deals with Serine/threonine-protein kinase SBK1 (Homo sapiens) (UniProt Q52WX2). Description: Selectivity interaction (KinomeScan (DiscoverX)) EUB0000655a SBK1. To be noted: at 10 µM.
Test [3] has as its target Serine/threonine-protein kinase WNK3 (Homo sapiens) (UniProt Q9BYP7). The test is described as follows: Selectivity interaction (KinomeScan (DiscoverX)) EUB0001079a WNK3. To be noted: at 1 µM.
The target in test [4] is Cyclin-dependent kinase 8 (Homo sapiens, UniProt P49336). Description: Selectivity interaction (KinomeScan (DiscoverX)) EUB0001079a CDK8. To be noted: at 1 µM.
Cyclin-dependent kinase 8, sequence (P49336 whole entry): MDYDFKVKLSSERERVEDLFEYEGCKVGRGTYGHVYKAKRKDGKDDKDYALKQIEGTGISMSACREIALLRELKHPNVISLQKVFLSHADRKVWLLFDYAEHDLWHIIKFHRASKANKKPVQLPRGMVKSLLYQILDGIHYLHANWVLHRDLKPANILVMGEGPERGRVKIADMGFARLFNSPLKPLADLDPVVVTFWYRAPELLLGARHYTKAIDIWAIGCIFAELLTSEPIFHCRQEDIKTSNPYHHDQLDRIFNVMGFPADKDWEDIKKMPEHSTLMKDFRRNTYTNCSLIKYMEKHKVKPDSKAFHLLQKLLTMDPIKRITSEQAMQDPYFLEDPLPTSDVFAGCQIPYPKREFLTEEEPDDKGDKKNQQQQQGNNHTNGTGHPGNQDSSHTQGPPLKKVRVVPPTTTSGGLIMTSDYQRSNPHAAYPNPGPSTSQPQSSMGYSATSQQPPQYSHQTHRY
For test [5], the target named is 1-phosphatidylinositol 3-phosphate 5-kinase (Homo sapiens) (UniProt Q9Y2I7). Description: Selectivity interaction (ActivX KiNativ screen (ex vivo kinase selectivity in human PBMCs)) EUB0001619a PIKFYVE. In kind it is cell-based. To be noted: PBMC, at 1 µM.
1-phosphatidylinositol 3-phosphate 5-kinase (Homo sapiens), sequence (Q9Y2I7 whole entry): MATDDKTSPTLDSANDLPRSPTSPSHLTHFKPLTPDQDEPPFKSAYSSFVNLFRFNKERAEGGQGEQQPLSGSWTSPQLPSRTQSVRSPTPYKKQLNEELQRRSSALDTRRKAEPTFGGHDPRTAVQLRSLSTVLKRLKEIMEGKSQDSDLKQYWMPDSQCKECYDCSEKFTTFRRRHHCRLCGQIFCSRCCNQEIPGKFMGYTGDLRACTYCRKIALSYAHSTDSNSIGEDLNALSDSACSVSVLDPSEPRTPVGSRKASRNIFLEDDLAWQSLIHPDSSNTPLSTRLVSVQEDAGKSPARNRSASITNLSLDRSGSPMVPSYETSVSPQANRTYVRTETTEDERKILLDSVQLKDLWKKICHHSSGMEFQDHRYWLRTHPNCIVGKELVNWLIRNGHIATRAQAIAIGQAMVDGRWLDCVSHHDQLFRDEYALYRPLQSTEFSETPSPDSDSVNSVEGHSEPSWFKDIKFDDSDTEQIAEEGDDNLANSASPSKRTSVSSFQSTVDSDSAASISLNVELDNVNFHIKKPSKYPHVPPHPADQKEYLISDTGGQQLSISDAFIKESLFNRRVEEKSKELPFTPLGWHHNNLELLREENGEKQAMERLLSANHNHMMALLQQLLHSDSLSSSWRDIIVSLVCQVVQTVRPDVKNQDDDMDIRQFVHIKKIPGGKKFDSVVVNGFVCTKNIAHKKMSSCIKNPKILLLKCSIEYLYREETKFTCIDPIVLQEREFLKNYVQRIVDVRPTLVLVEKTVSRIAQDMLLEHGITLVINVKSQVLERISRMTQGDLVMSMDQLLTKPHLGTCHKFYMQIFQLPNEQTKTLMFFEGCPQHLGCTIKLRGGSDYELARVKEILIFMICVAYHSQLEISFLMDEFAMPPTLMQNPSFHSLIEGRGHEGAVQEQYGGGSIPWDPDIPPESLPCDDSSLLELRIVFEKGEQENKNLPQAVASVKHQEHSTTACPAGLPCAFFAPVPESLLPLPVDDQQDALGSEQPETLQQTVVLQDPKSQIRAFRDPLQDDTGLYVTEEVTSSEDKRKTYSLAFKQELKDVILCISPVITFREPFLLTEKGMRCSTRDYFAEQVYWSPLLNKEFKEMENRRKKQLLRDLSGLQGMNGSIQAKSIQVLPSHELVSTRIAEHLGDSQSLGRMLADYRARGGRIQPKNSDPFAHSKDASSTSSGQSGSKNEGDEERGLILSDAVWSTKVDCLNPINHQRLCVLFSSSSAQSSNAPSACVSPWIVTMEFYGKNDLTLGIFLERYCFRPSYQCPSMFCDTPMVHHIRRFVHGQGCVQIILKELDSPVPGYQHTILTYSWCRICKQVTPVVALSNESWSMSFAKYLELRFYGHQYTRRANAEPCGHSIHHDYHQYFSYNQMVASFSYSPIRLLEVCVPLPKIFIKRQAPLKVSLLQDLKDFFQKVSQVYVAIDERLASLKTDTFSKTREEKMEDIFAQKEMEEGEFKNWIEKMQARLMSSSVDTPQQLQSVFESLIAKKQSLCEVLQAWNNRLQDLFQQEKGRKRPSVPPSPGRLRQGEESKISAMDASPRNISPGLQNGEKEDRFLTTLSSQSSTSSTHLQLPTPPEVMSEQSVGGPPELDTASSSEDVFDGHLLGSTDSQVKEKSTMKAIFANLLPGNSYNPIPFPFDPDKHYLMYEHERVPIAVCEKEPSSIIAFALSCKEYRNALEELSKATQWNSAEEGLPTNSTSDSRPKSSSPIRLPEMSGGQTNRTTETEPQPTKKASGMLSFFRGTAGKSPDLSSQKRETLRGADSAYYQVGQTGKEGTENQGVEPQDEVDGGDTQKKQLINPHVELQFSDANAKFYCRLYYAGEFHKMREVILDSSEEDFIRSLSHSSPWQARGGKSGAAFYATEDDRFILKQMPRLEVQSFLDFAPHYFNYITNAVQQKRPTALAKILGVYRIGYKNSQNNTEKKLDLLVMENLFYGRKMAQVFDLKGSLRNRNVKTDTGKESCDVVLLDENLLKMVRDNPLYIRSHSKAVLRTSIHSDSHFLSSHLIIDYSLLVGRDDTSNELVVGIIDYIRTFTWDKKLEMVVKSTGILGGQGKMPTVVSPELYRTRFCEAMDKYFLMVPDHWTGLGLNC
Test [6] deals with T2, Beta-adrenergic receptor kinase 1 (Homo sapiens) (UniProt P25098).
T2 sequence (whole entry): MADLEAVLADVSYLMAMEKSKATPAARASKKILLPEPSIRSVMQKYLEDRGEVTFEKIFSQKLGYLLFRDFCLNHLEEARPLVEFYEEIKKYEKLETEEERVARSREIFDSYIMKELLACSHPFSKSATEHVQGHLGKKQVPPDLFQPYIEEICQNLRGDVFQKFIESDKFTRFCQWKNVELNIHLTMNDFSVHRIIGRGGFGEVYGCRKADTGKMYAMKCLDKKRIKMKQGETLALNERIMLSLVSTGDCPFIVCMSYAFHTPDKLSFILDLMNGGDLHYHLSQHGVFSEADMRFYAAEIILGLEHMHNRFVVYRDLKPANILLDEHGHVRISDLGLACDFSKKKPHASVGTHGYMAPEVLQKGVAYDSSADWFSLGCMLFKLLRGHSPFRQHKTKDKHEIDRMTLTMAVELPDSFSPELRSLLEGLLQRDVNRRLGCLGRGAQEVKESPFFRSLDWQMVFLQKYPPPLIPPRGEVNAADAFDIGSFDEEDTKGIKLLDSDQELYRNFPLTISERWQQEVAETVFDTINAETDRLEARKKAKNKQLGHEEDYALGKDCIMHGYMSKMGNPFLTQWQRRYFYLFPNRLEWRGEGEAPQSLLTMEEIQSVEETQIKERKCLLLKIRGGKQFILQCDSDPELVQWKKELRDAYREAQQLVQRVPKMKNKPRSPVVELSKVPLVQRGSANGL
Description: Selectivity interaction (Kinase panel (Invitrogen)) EUB0000639a ADRBK1. As to conditions: at 200 nM.

For test [7], the target named is T3, Gamma-aminobutyric acid receptor subunit alpha-1 (Homo sapiens) (UniProt P14867).
T3 sequence (whole entry): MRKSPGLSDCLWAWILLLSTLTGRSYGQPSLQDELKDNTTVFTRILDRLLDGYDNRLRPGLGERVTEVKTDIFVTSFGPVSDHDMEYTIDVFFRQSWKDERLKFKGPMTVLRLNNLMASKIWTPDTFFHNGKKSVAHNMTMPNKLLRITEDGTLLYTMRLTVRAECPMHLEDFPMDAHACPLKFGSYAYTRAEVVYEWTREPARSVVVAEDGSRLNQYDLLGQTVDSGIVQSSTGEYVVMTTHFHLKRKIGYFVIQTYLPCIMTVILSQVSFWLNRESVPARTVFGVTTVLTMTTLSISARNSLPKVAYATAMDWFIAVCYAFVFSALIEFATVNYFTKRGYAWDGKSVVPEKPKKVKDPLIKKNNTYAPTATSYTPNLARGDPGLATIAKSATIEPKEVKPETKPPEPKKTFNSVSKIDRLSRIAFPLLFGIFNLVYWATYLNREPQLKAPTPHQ
Description: Selectivity interaction (Eurofins CEREP Diversity Profile (receptors and ion channels)) EUB0000279b GABRA1. As to conditions: at 10 µM.

Test [8] has as its target Tyrosine-protein kinase HCK (Homo sapiens) (UniProt P08631). The test is described as follows: Selectivity interaction (Upstate Kinase Profiler service (Millipore)) EUB0000056c HCK. As to conditions: at 1 µM.

Serine/threonine-protein kinase WNK3 (Homo sapiens), sequence (Q9BYP7 whole entry): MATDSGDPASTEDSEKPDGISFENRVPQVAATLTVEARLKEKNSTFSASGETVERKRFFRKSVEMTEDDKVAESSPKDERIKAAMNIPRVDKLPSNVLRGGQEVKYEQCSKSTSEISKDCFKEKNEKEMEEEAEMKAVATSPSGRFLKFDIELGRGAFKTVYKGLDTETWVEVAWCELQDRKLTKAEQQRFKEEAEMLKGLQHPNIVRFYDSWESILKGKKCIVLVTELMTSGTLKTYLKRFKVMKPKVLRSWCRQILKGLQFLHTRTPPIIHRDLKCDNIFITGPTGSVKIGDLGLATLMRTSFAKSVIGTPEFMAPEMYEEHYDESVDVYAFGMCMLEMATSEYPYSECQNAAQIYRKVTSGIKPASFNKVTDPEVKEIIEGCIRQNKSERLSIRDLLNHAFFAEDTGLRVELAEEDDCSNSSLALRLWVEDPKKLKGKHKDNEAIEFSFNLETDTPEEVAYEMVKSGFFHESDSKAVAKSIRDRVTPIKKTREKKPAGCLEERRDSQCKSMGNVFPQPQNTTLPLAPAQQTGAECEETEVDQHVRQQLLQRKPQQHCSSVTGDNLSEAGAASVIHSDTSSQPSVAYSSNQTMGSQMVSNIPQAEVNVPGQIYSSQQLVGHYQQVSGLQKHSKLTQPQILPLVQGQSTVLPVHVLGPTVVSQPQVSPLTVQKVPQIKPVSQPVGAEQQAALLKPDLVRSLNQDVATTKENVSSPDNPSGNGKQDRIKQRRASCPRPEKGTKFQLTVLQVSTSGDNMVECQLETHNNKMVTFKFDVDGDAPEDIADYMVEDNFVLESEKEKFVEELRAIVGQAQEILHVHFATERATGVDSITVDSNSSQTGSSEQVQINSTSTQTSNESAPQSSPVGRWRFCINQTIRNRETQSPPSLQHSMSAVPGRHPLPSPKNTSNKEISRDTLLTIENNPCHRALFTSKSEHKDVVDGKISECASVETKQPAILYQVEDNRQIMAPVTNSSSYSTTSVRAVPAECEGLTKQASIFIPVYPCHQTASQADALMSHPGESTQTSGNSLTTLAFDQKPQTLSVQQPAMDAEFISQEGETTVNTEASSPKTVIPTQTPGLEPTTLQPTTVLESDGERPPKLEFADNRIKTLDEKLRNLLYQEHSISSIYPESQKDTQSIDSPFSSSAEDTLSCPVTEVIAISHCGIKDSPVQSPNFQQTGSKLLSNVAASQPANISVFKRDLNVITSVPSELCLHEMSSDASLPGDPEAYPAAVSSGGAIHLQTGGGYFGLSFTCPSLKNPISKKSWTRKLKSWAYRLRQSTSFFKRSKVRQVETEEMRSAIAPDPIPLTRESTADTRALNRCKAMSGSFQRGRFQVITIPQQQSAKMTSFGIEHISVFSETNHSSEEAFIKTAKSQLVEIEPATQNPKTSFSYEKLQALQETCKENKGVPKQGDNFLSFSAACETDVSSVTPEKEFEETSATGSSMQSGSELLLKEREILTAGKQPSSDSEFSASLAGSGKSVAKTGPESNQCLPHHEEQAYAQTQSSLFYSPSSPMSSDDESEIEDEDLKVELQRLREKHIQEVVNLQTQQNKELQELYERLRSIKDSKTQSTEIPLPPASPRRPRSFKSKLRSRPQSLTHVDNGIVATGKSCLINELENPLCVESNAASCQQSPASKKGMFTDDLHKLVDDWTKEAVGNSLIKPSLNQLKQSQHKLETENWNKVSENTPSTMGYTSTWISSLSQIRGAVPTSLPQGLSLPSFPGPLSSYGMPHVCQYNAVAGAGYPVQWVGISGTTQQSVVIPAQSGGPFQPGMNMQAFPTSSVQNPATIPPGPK
Tyrosine-protein kinase HCK (Homo sapiens), sequence (P08631 2-526 limits assumed): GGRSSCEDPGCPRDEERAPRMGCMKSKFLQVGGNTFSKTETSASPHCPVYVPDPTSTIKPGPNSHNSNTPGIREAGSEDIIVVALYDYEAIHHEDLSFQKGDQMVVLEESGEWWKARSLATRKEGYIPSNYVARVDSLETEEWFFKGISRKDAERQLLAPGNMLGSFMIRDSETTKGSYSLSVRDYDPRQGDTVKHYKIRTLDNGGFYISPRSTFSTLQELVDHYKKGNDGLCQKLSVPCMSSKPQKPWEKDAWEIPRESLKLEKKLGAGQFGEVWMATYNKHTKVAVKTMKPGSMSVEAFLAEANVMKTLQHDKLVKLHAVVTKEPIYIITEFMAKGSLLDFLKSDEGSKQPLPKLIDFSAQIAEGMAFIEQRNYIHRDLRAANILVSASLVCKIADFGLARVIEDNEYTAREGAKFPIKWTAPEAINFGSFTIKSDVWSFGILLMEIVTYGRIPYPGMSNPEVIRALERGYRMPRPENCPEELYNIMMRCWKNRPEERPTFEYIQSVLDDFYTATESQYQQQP

As to `O=C(NOC[C@H](O)CO)c1ccc(F)c(F)c1Nc1ccc(I)cc1F`, in test [1], the % of control worked out at 100%. Take `CN(C)CCOc1ccc(-c2nc(-c3ccncc3)c(-c3ccc4c(c3)CC/C4=N\O)[nH]2)cc1`: the % of control in test [2] was 83%.

For `Nc1cnc(N2CCc3cc(S(=O)(=O)Nc4c(F)cc(Cl)cc4F)cc(N4CCCC4=O)c32)nc1` [TP-020n], the % of control in test [3] and in test [4] was 100% throughout. In the case of `N#Cc1cccc(-c2c[nH]c3ncnc(N4CCOCC4)c23)c1`, the % of inhibition in test [5] is 22%. As for `CC[C@@H]1[C@H](F)C(=O)N[C@@H]1COc1nccc2cc(C(N)=O)c(OC)cc12` [ZIMLOVISERTIB], the % of inhibition in test [6] was 0.284%. For the molecule `CC(=O)c1cc(-c2ccccc2OCC2CC2)c2ncccn12`, the % of control in test [7] amounted to 112%. `Cc1ccc(-c2ccc3c(ccc4sc5c(c43)NC[C@@H](C)NC5=O)n2)cn1` registered a % of inhibition in test [8] of 46%.
